88 compounds from a melting point compilation (Tetko et al.; mined from patent text by program, amines drawn as free bases though some values may be those of a salt) can be followed below.

As usually defined, the melting point is the temperature, or range, at which the solid turns liquid.

Where only a bound is given, the exact number is not on record here.

`COC(=O)[C@@H]1C[C@H](OS(=O)(=O)c2ccc(Br)cc2)C(=O)[C@@H]2[C@@]3(C)C[C@@H](c4ccoc4)OC(=O)[C@H]3CC[C@]21C` yielded a melting point of 165 to 166 °C.

With `Cc1oc(-c2ccco2)nc1COc1ccc(CO)cc1Br`, the melting point lay in the range of 141 to 142 °C.

In the case of `Oc1ccc2c(c1)OCC(c1ccc(F)cc1)C2c1ccc(OCCCN2CCCCC2)cc1` (stereo not drawn), the melting point fell in the range of 78 to 84 °C.

On to `CCN=C1SC2CCOc3ccc([N+](=O)[O-])cc3C2(O)N1CC` (stereo not drawn), for which the melting point lay within 125 to 127 °C.

The compound `COc1cc(Nc2ncc(C#N)c(-c3ccccc3)n2)cc(OC)c1` yielded a melting point of 206 to 207 °C.

`O=C(OCC1OC(n2cc(F)c(=O)[nH]c2=O)CC1OCc1ccccc1)c1ccc2c(c1)OCO2` (stereo not drawn) yielded a melting point of 169 to 171 °C.

`Fc1cc(I)c2nc[nH]c2c1` came in with a melting point of 210 to 211 °C.

Turning to `CC(CSC(=O)c1ccccc1)C(=O)N1c2ccccc2CC1C(=O)O` (stereo not drawn), the melting point was in the range of 116 to 117 °C.

On to `CSc1c(S(=O)(=O)NC(C)(C)C)ccn1C`, for which the melting point fell in the range of 116 to 119 °C.

`O=c1oc2c(c(O)c1C(c1ccccc1)C1CC1)CCCCCCC2` (stereo not drawn): the melting point was 81.7 to 84 °C.

In turn, `CCN(CC)c1ccc2cc(C=CC(=O)c3c(N(CC)CC)c4ccccc4oc3=O)oc2c1` came in with a melting point of 169 to 171 °C.

With `O=CNCS(=O)(=O)c1ccc2ccccc2c1`, the melting point was 139 to 141 °C.

Turning to `OC1(c2ccc(Cl)cc2)CCN(CCCc2nnc3n2CCCCC3)CC1`, the melting point came out at 163 °C.

`Oc1c(Cl)c(Cl)c(-c2c(Cl)c(Cl)c(O)c(Cl)c2Cl)c(Cl)c1Cl` displayed a melting point of 94 to 96 °C.

With `COc1cc2c(C)c(C#N)cnc2cc1F`, the melting point is 177 to 179 °C.

As for `O=C(O)c1ccc2nc3n(c(=O)c2c1)CCCC3=Cc1ccccc1`, the melting point is 288 to 290 °C.

For `NNC(=O)c1ccc2c(c1)CCO2`, the melting point lay in the range of 148 to 149 °C.

As to `CC(C)(ON=C(C(=O)N[C@@H]1C(=O)N[C@@H]1C(N)=O)c1csc(NC(=O)CCl)n1)C(=O)OCc1ccc([N+](=O)[O-])cc1` (relative stereo), the melting point was 144 to 147 °C.

For the compound `FC(F)(F)c1cc(Cl)ccc1N=C(Cl)n1cncn1`, the melting point was in the range of 165 to 166 °C.

`CCN(CC)S(=O)(=O)N1CCNC1=O` showed a melting point of 80 to 82 °C.

`CCOC(=O)c1c(N2CCN(C(=O)c3cccs3)CC2)c2cc(Cl)cnc2n(Cc2ccccc2)c1=O` displayed a melting point of 197 °C.

`Clc1ccc(OCCN2CCN3CC=C(c4ccncc4)N=C32)cc1` had a melting point of 211 to 213 °C.

Regarding `CC1(C)Cc2cc(S(N)(=O)=O)ccc2O1`, the melting point fell in the range of 157 to 160 °C.

`CCCCc1nc2c(c(C)c(C)n3nnnc23)n1CC(C)(C)NC(=O)OC(C)(C)C` yielded a melting point of 179 to 181 °C.

On to `O=C(O)c1ccc(C#Cc2ccccc2)cc1OCc1ccccc1`, for which the melting point lay within 125 to 127 °C.

As for `CC(=O)NCc1ccc(CN2CCN(c3cccnc3)CC2)cc1`, the melting point was in the range of 139 to 140 °C.

`COc1ccc(Cc2nc(C#N)c[nH]2)cc1`: the melting point lay in the range of 170 to 171 °C.

The compound `CCOC(=O)c1c(CN(C)c2ccccn2)nc2cc(OC)c(OC)cc2c1-c1ccc(OC)c(OC)c1` gave a melting point of 174 to 175 °C.

`CNC(=O)c1cc(-c2ccc(OC)c(Cl)c2)nn(CC(C)C)c1=O` displayed a melting point of 182 to 184 °C.

As to `CC(C)c1nc(CO)n(C)c1Sc1cc(Cl)cc(Cl)c1`, the melting point lay in the range of 157 to 158 °C.

`O=C(Nc1cccc(Cl)c1)NC1CC(C2CCCCC2)c2ccccc2NC1=O` (stereo not drawn) showed a melting point of 222 to 225 °C.

Consider `O=C(NC[C@@H](O)C(=O)O)OCC1c2ccccc2-c2ccccc21`, for which the melting point was 165 to 166 °C.

For `CC(C)(CCn1cnnc1)NCC(O)c1ccc(OCc2ccccc2)c(CO)c1` (stereo not drawn), the melting point is 139 to 141 °C.

`CCc1ccc2c(c1)[C@@H](N1CCCC1=O)[C@H](O)C(C)(C)O2` (relative stereo) registered a melting point of 154 to 163 °C.

In turn, `CNc1cc(S(=O)(=O)c2cccc(C(F)(F)F)c2)cc(Br)n1` showed a melting point of 115 to 117 °C.

In turn, `Cn1ncc(C(N)=O)c1-c1ccco1` yielded a melting point of 116 °C.

For `NC(=O)c1c(Cl)ccc(Br)c1F`, the melting point fell in the range of 157 to 158 °C.

In the case of `Cc1nc2cnccc2n1-c1ccc(O)cc1`, the melting point was 265 to 267 °C.

The compound `COC1=C(OC)C(=O)C2=C(CC(CCCCOc3ccc(C(=O)N(C)C)cc3)C2)C1=O` registered a melting point of 80 to 83 °C.

With `CC(C)(Cl)C(COCc1ccc([N+](=O)[O-])o1)N=O` (stereo not drawn), the melting point lay within 134 to 135 °C.

With `CCn1cc(C(=O)O)c(=O)c2cc(F)c(N3CCN(C)C(c4ccsc4)C3)cc21` (stereo not drawn), the melting point was in the range of 226 to 228 °C.

As to `CC(C)(C)OC(=O)C[C@@H](NC(=O)/C=C/S(=O)(=O)c1ccccc1)C(=O)OC(C)(C)C`, the melting point lay within 168 to 169 °C.

For the compound `Cc1cc(C=CC#N)cc(Oc2[nH]c(=O)[nH]c(=O)c2C(C)C)c1`, the melting point is 279 to 280 °C.

The compound `C#CCOCc1c(C)nc2c(OCc3ccccc3OC)cccn12` came in with a melting point of 107 to 108 °C.

In turn, `COc1cc(CCc2ccccc2)c(OC)c2c1C(=O)c1ccccc1C2=O` returned a melting point of 100 °C.

In turn, `COc1cc(OC)nc(C(C#N)c2ccccc2[N+](=O)[O-])n1` (stereo not drawn) had a melting point of 88 to 89 °C.

In the case of `CCCCCS(=O)(=O)NC(=O)/C=C/c1cc(OCC2CC2)nn1Cc1ccc(C(F)(F)F)cc1Cl`, the melting point is 148 to 151 °C.

Take `Cc1nc2cc(Br)ccc2s1`: the melting point was 84 to 85 °C.

For `CCOc1c(/C=C/c2ccc(NS(C)(=O)=O)cc2)cc(-n2ccc(=O)[nH]c2=O)cc1C(C)(C)C`, the melting point lay within 265 to 266 °C.

`OC(CCc1ccccc1)Cn1ccnc1` (stereo not drawn) registered a melting point of 106 to 107 °C.

Turning to `Cn1c(-c2cnn(-c3c(Cl)cc(C(F)(F)F)cc3Cl)n2)nc(C#N)c1C#N`, the melting point was in the range of 154 to 156 °C.

On to `Cc1ccn(-c2ccc(C(=O)N3Cc4ccc(C)n4Cc4ccccc43)c(Cl)c2)n1`, for which the melting point is 178 to 180 °C.

Take `CC(C)(C)OC(=O)NCc1ccc(Nc2ncc(Br)cc2[N+](=O)[O-])cc1`: the melting point is 178 to 180 °C.

In the case of `CC1=C2OC(C)(C)OC2CC(C)(C)C1=O` (stereo not drawn), the melting point was in the range of 79 to 80 °C.

In turn, `CCCCOCCOc1ccc(-c2ccc(N3CCCCCC3)c(C=C(C)C(=O)OC)c2)cc1` gave a melting point of 86 to 89 °C.

For `O=C(O)/C=C(/C#Cc1ccccc1)c1ccccc1`, the melting point lay within 124 to 126 °C.

`CCOC(=O)c1c(Cn2cncn2)nc2sc(C)c(C)c2c1-c1ccc(Cl)cc1`: the melting point was in the range of 144 to 145 °C.

Compound `CC(Cc1c[nH]c2ccccc12)(NC(=O)OC(CF)C(F)F)C(=O)NCCc1ccccn1` (stereo not drawn) had a melting point of 65 to 67 °C.

For `COc1cc(Nc2c(C#N)cnc3cc(-c4ccc(CNCCS(=O)(=O)c5ccccc5)o4)ccc23)c(Cl)cc1Cl`, the melting point lay within 123 to 128 °C.

In the case of `CC(=O)NNc1ccnc2c(NC(=O)c3c(Cl)cccc3Cl)cc(C)c(C)c12`, the melting point is over 250 °C.

Compound `CN1CCN(c2ccccc2C=C2CCN(c3ccc(C(F)(F)F)cc3)C2=O)CC1` yielded a melting point of 186 to 189 °C.

Take `COc1cc(C(=O)CBr)cc(C#N)c1OC`: the melting point was 138 to 141 °C.

On to `NC(=NO)c1nn([C@@H]2O[C@H](CO)[C@@H](O)[C@H]2O)c2ncnc(N)c12`, for which the melting point lay in the range of 242 to 244 °C.

In the case of `Nc1nonc1-c1nc2ccccc2n1COc1ccccc1`, the melting point was in the range of 171 to 173 °C.

The compound `Cc1onc(-c2ccccc2)c1-c1nc(-c2c(F)cccc2Cl)nn1C` gave a melting point of 120 to 125 °C.

Take `CC1(C)COC(CCc2ccc(NC=NO)cc2)OC1`: the melting point was in the range of 159 to 160 °C.

On to `CCCNC(=O)C(C)=Cc1ccc2c(c1)c(Cc1ccc(C(=O)O)cc1OC)cn2CCC(=O)N(C)C`, for which the melting point was in the range of 90 to 97 °C.

Take `CCC(Oc1ccccc1C(C)=O)C(=O)OC1CC(O)C=C2C=CC(C)C(CCC3CC(O)CC(=O)O3)C21` (mixture of isomers): the melting point lay in the range of 148 to 150 °C.

Regarding `O=C1CCCc2ccc(OCc3cccc(Cl)c3)cc21`, the melting point was in the range of 77 to 78 °C.

The compound `CCCNc1nnc(C)o1` had a melting point of 46.5 to 47.5 °C.

On to `CCCCOc1c(-c2cc(C=CC(=O)O)ccc2O)cc(C(C)(C)C)cc1C(C)(C)C`, for which the melting point lay in the range of 92 to 94 °C.

With `COC(=O)c1ccc(-c2ccc(OC)c(C(C)(C)C)c2)s1`, the melting point lay within 94 to 95 °C.

The compound `CC(C)n1c(=O)nc(-c2ccc3ccccc3c2)c2cc3c(cc21)OCO3` came in with a melting point of 213 to 215 °C.

In the case of `O=C(N1CCCC1)C1(N2CCCCC2)CCNCC1`, the melting point worked out at 144 °C.

Consider `COc1ccc(C(=O)Nc2ccncc2)c2c1oc1ccc(NC(C)=O)cc12`, for which the melting point was in the range of 267 to 268 °C.

The compound `CCOC(=O)c1ncn(-c2nc(C)c(Cl)s2)c1S(N)(=O)=O` had a melting point of 136 to 139 °C.

As for `O=Cc1c(-c2ccc(Cl)cc2)nsc1-c1ccccc1`, the melting point lay in the range of 148 to 149 °C.

`COC(=O)C(C)c1ccc2c(c1)C(=O)Cc1cccnc1S2` (stereo not drawn) registered a melting point of 98 to 99.5 °C.

In turn, `CCON=C(c1ccccc1SCc1ccc(Cl)cc1)n1ccnc1` displayed a melting point of 96.5 to 97.5 °C.

`CON1C=C(C)N=C(NC(=O)NS(=O)(=O)c2ccccc2C=CC(F)(F)F)N1` displayed a melting point of 159 to 160 °C.

`CC(=O)OC1CSC(Oc2c(C)ccnc2-c2cccnc2)C(OC(C)=O)C1OC(C)=O` (stereo not drawn) had a melting point of 143 °C.

In the case of `CCC1Cc2cc(OCCCC(=O)O)c(Cl)c(Cl)c2C1=O` (stereo not drawn), the melting point was 146 to 148 °C.

In turn, `Oc1ccc(-c2nc3cc(O)cc(-c4ccco4)c3o2)cc1` came in with a melting point of 120 to 121 °C.

As for `COC(=O)c1cc2ccccc2c(-c2ccnc(Cl)c2)c1C(=O)OC`, the melting point fell in the range of 174 to 178 °C.

In turn, `CC(C)NNC(=O)OCc1ccccc1` had a melting point of 61 to 62 °C.

Compound `Cc1c(C)c(C)c(S(=O)(=O)NC(Cc2nc3ccc(C=CCNC4=NCCN4)cc3c(=O)[nH]2)C(=O)O)c(C)c1C` (stereo not drawn) registered a melting point of 131 to 135 °C.

Compound `O=C(c1cc[nH]c1)c1ccc2ccccc2c1` returned a melting point of 134 to 136 °C.

Compound `CCOC(=O)CCCCCOC1OC(COC(C)=O)C(OC(C)=O)C(OC(C)=O)C1NC(C)=O` (stereo not drawn) came in with a melting point of 101 to 102 °C.
